Results taken from patent US6162875A, “Low nitrosamine systems for rubber vulcanization” (Robinson Brothers Limited, priority 1992, dated 2000).

Legend:
[1] = test system: bacterial strains TA 1535, TA 1537, TA 1538, TA 98 and TA 100; test: Ames test for mutagenicity, revertant colony counts; settings: 50, 150, 500, 1500, 5000 μg/plate, with and without metabolic activation, five strains
[2] = test system: bacterial strains TA 1535, TA 1537, TA 1538, TA 98 and TA 100; test: Preliminary test for toxicity to the bacterial strains (Ames test); settings: for precipitates observed: 5000 μg dose, all strains

CN(C)N=O [dimethylnitrosamine]
mutagenic to TA 1535 (TA 1535): mutagenic
mutagenic to TA 100 (TA 100): mutagenic

O=NN(Cc1ccccc1)Cc1ccccc1 [N-nitrosodibenzylamine]
increase of revertant colony counts over control values [1]: no increase of revertant colony counts over control values
precipitates observed [2]: precipitates were observed
toxicity to the bacterial strains ([2]; doses up to and including 5000 μg/plate): non-toxic

N-nitrosodiisononylamine
increase of revertant colony counts over control values [1]: no increase of revertant colony counts over control values

zinc diisononyldithiocarbamate [Example 1]
increase of revertant colony counts over control values [1]: no increase of revertant colony counts over control values
precipitates observed [2]: precipitates were observed
